Data published in patent publication US11549123B2, “Plant EPSP synthases and methods of use” (PIONEER HI-BRED INTERNATIONAL, INC., priority 2015, dated 2023).

Target: T1, Oryza sativa EPSPS, native, SEQ ID NO:7 (Oryza sativa, UniProt Q93VK6)
T1 sequence (Q93VK6 64-511): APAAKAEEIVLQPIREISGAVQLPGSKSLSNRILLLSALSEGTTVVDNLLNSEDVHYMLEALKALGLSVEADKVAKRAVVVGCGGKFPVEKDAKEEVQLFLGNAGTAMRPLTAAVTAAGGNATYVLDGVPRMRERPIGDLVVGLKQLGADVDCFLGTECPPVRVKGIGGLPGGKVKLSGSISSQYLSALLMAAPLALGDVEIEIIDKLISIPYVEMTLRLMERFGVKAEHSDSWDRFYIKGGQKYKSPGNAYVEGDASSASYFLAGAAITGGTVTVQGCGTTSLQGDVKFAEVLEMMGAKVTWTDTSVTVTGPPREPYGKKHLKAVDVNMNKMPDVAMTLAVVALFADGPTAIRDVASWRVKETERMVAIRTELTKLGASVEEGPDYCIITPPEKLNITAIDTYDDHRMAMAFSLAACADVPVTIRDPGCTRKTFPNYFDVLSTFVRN
Test: EPSPS substrate saturation kinetics, native rice
Assay type: biochemical
Experimental: EPSPS activity was determined by quantifying the phosphate generated from the EPSPS reaction. Release of inorganic phosphate was coupled to reaction with 2-amino-6-mercapto-7-methylpurine ribonucleoside, catalyzed by purine-nucleoside phosphorylase (M R Webb, Proc. Natl. Acad. Sci. 89:4884-4887, 1992). The absorbance change that occurs was monitored at 360 nm, where the extinction is 11,200 M^−1 cm^−1, with a Spectramax plate reader (Molecular Devices). To determine kinetic parameters, the varied substrate was present at seven concentrations (the eighth being the blank, containing no substrate) ranging from 4 to 400 uM and the unvaried substrate present at saturation. Six microliters of 50-fold concentrated stock solutions of the varied substrate were placed in the wells of the 96-well assay plate and reactions were started with the addition of a mixture containing 25 mM Hepes, pH 7, 100 mM KCl, 0.3 mM 2-amino-6-mercapto-7-methylpurine ribonucleosde, 1 uM (1 unit/ml) purine-nucleoside phosphorylase (Sigma N8264) and 200 uM of the non-varied substrate. Reactions were monitored with a Spectramax plate reader. The Michaelis-Menten kinetics protocol of the Spectramax software was customized for the substrate concentrations used. The software returns values of KM and Vmax using the Lineweaver-Burke transformation of the Michaelis-Menten equation. To determine kcat, Vmax (uM/min) was divided by the enzyme concentration (uM). […] KI was then calculated from the following form of the Michaelis-Menten equation for competitive inhibition: KI=KM[I]/(KM app−KM) KM approximates the dissociation constant of the enzyme-substrate complex while kcat is the rate of conversion of substrate to product when the substrate concentration is saturating. kcat/KM is a widely accepted parameter for catalytic efficiency when substrate concentration is low (˜KM). […] The parameter kcat/KM×KI is used to quantify both catalytic efficiency and insensitivity and thus the overall fitness of the enzyme.
Native EPSPS amino acid sequences of rice (Oryza sativa) (SEQ ID NO:7), sorghum (Sorghum halepense) (SEQ ID NO:8), and sunflower (Helianthus annus) (SEQ ID NO:9) including the chloroplast transit peptide sequences were assembled and analyzed for mapping the corresponding amino acid mutations from the maize 868-H6. If complete EPSPS sequences were not available, appropriate adjustments were made based on sequence alignments and conserved residue mapping.
ChloroP Prediction Server (Emanuelsson, O. et al. 1999. Protein Sci. 8(5):978-84) was used to approximate the amino terminus of the mature EPSPS proteins. […] The synthetic genes were cloned into a plasmid vector and expressed, purified and analyzed as described in Example 1.

Row | Structure (SMILES) | kcat (PEP varied) [s⁻¹] | Km (read-out: KM (PEP), PEP varied) [µM] | Ki [nM] | (kcat/KM)*KI (PEP as substrate, glyphosate as inhibitor)
1 | C=C(OP(=O)(O)O)C(=O)O [PEP, phosphoenolpyruvate] | 30.97 | 12.6 |  | 
2 | O=C(O)CNCP(=O)(O)O [glyphosate, N-phosphonomethylglycine] |  |  | 100 | 18
